In US7745473B2, “Indole derivative for alkylating specific base sequence of DNA and alkylating agent and drug containing the derivative” (Kyoto University, priority 2004, dated 2010):
Entries after “also recorded” stand apart in the source; their conditions may differ.

What was measured:
[1] = Stability under acidic and alkaline conditions by HPLC; type: physicochemical
Protocol: Analysis of stability under acidic and alkaline conditions by HPLC was performed by the following process: A reaction solution containing compound (3-1) or (4-1) (100 μM) in a total volume of 10 μL of an aqueous solution of 5% HCl (pH=1, DMF:H2O=1:9) or an aqueous solution of 5% NaHCO3 (pH=9, DMF:H2O=1:9) was charged into a microfuge tube (Eppendorf) and left standing at 37° C. After 30 minutes, 2 hours, and 24 hours, analysis of compound (4-1) (16.8 min) and compound (3-1) (15.1 min) was performed by HPLC (linear gradient of acetonitrile 0-100% in 50 mM ammonium formate, 20 min, flow rate: 1.0 mL/min, 254 nm).
The Py-Im polyamide containing the indole linker was evaluated for stability by product analysis on HPLC using compounds (4-1) and (3-1). […] Compound (4-1) was converted into compound (3-1) (30 minutes: 50%, 2 hours: 78%) in the alkaline aqueous NaHCO3 solution (pH=9) (left standing at 37° C. for 24 hours). […] Compound (3-1) was readily converted into compound (4-1) (30 minutes: 96%) in the acidic aqueous HCl solution (pH=1) (37° C.).

[2] = system: long-chain DNA (pUC-II′; SEQ ID NO:7); test: DNA alkylation of 5′-Texas Red-labeled long-chain DNA, analysed by polyacrylamide gel electrophoresis; type: biochemical; conditions: 23° C., 8 hours, FIG. 1
Protocol: A 5′-Texas Red-labeled DNA fragment (450 bp) (pUC-II′, SEQ ID NO:7) was prepared by a PCR method using the 5′-Texas Red-labeled 19-base-pair primer (pUC18 forward, 328-345; SEQ ID NO:6) and the 21-base-pair primer (pUC18 reverse, 1861-1881; SEQ ID NO:5), puc18 being used as a template.
The reaction of compounds (3-1) and (4-1) prepared in the above-described Synthesis Examples with DNA was studied using the long-chain DNA (pUC-II′; SEQ ID NO:7). An alkylation reaction was performed at 23° C. for 8 hours. The sequence alkylated was analyzed by polyacrylic gel electrophoresis for sequence determination. […] This sequence specificity can be explained by a model in which each compound dimerizes in the DNA minor groove to recognize the base sequence.
Analysis by polyacrylamide gel electrophoresis was performed by the following process: A standard reaction solution containing the 5′-Texas Red-end-labeled DNA fragment (10 nM), DMF (10% (v/v)), and an agent having a concentration described above in a sodium phosphate buffer (5 mM, total volume: 10 μL, pH=7.0) was charged into a microfuge tube (Eppendorf) and left standing at 23° C. for 8 hours. After completion of the reaction, the reaction was quenched by the addition of calf thymus DNA (1 mM, 1 μL). The resulting mixture was shaken at 90° C. for 5 minutes. […]

[3] = system: long-chain DNA (pUC-II; SEQ ID NO:4, pUC-I′; SEQ ID NO:1); test: as above; type: biochemical
Protocol: A 5′-Texas Red-labeled DNA fragment (450 bp) (pUC-I′, SEQ ID NO:1) was prepared by a PCR method using a 5′-Texas Red-labeled 20-base-pair primer, i.e., 5′-TexRed-[…]-3′ (pUC18 forward, 780-799; SEQ ID NO:2), and a 20-base-pair primer, i.e., 5′-[…]-3′ (pUC18 reverse, 1459-1478; SEQ ID NO:3), puc18 being used as a template. The DNA fragment was in a double-stranded state including a complementary strand (the following fragments were in the same state).
A 5′-Texas Red-labeled DNA fragment (450 bp) (pUC-II, SEQ ID NO:4) was prepared by a PCR method using a 5′-Texas Red-labeled 21-base-pair primer, i.e., 5′-TexRed-[…]-3′ (pUC18 reverse, 1861-1881; SEQ ID NO:5), and a 19-base-pair primer, i.e., 5-TGTAAAACGACGGCCAGTG-3′ (pUC18 forward, 328-345; SEQ ID NO:6), puc18 being used as a template.
(§1) Analysis by polyacrylamide gel electrophoresis was performed by the following process: A standard reaction solution containing the 5′-Texas Red-end-labeled DNA fragment (10 nM), DMF (10% (v/v)), and an agent having a concentration described above in a sodium phosphate buffer (5 mM, total volume: 10 μL, pH=7.0) was charged into a microfuge tube (Eppendorf) and left standing at 23° C. for 8 hours. After completion of the reaction, the reaction was quenched by the addition of calf thymus DNA (1 mM, 1 μL). The resulting mixture was shaken at 90° C. for 5 minutes. The DNA obtained by centrifugation under reduced pressure was dissolved by the addition of 8 μl, of loading dye (fushin red solution in DMF), shaken at 94° C. for 20 minutes, and then immediately cooled to 0° C. A 2-μL aliquot was separated electrophoretically on a 6% denaturing polyacrylamide gel using a Hitachi 5500-S DNA sequencer. The following tests were conducted in a similar way.
The reaction of compounds (3-2) and (3-3) prepared in the above-described Synthesis Examples with DNA was studied using the long-chain DNA (pUC-II; SEQ ID NO:4, pUC-I′; SEQ ID NO:1). An alkylation reaction was performed for 8 hours. The sequence alkylated was analyzed by polyacrylic gel electrophoresis for sequence determination. […] However, the difference in sequence recognition ability was observed. […] From the stand point of the sequence recognition ability, the molecular design of compound (3-2) was excellent.

[4] = system: long-chain DNA (λ-F10906; SEQ ID NO:8); test: as above; type: biochemical; conditions: λ-F10906, nanomolar concentrations, FIG. 4
Protocol: A 5′-Texas Red-labeled DNA fragment (537 bp) (λ-F10906; SEQ ID NO:8) was prepared by a PCR method using a 5′-Texas Red-labeled 23-base-pair primer, i.e., 5′-TexRed-[…]-3′ (λ-DNA forward, 10960-10982; SEQ ID NO:9), and a 20-base-pair primer, i.e., 5′-[…]-3′ (λ-DNA reverse, 37007-37026; SEQ ID NO:10), λ-DNA being used as a template.
as §1
The reaction of compounds (3-2), (3-4), and (3-5) with DNA was studied using the long-chain DNA (λ-F10906; SEQ ID NO:8). The DNA-alkylating ability of each compound was evaluated.

[5] = system: human ER(+) breast cancer Br-10; test: Antitumor activity against transplantable human breast cancer in nude mice; type: in vivo, BALB/cA-nu/nu mice; conditions: for T/C (%): treated group / control group ×100
Protocol: Antitumor activity of compound (4-2) against transplantable human ER(+) breast cancer Br-10 in nude mice was studied. Human ER(+) breast cancer Br-10 was subcutaneously transplanted in dorsal portions of 8-week-old BALB/cA-nu/nu mice through a trocar. Injection of 0.1 mL of EP Hormone Depot was intramuscularly administered in Br-10-transplant mice simultaneously with the transplantation. When the tumor volume reached about 100 mm^3, the mice were divided into 5 mice/group, and then the administration started.
Compound (4-2) was dissolved in ethanol, diluted with physiological saline, and subcutaneously injected in divided doses into 3 or 4 portions near the tumor once a day and 3 times every 3 days. The dose of compound (4-2) was 50 mg/kg (about 1 mg/mouse) in a volume of 0.05 mL/10 g. Physiological saline was subcutaneously injected in the control group. The length of the major axis (L) and the length of the minor axis (W) were measured every 3 days. The tumor volume was calculated with the following formula: Tumor volume (mm^3)=L(mm)×W^2(mm^2)/2 Comparison of the tumor volume between the compound (4-2) treated group and the control group was performed. […] Values shown in the table show relative estimation of each group when the tumor volume after 1 day in each group is defined as 1.0; and relative estimation calculated with (tumor volume of compound (4-2) treated group: T)/(tumor volume of control group: C)×100%.

[6] = 8 hours, pUC-II and pUC-I′, FIG. 2

CC(=O)Nc1cn(C)c(C(=O)Nc2cn(C)c(C(=O)Nc3ccc4[nH]c(C(=O)N5CC6CC67C5=CC(=O)c5ccccc57)cc4c3)n2)n1 (centres unmarked) [compound (3-1), AcImIm-Indole-CBI]
conversion into compound (4-1) ([1]; acidic aqueous HCl solution pH=1, 37° C., 30 minutes): 96% | sequence-specific DNA alkylation [2]: selectively alkylated adenine located at site 1 (5′-CGGCCA-3′) at nanomolar concentrations

CC(=O)Nc1cn(C)c(C(=O)Nc2cn(C)c(C(=O)Nc3cc(C(=O)NCCCC(=O)Nc4cn(C)c(C(=O)Nc5ccc6[nH]c(C(=O)N7CC8CC89C7=CC(=O)c7ccccc79)cc6c5)n4)n(C)c3)n2)n1 (centres unmarked) [compound (3-3), AcImImPy-γ-Im-Indole-CBI]
alkylated sites (sequence recognition ability) [3, 6]: alkylation of site 4 (5′-AGCCA-3′), which was a match sequence, was observed; also recorded: single-base-pair mismatch sequences in site 1 (5′-AGCTA-3′), site 2 (5′-AGTCA-3′), site 5 (5′-TACCA-3′), and the like were also observed | efficiency of DNA alkylation [3, 6]: efficient DNA alkylation comparable with that of a known Py-Im polyamide having a vinyl linker was observed at nanomolar concentrations | alkylation of guanine at match site 5′-TGCCG-3′ ([3]; pUC-I′ (SEQ ID NO:1)): no alkylation of guanine was observed

CC(=O)Nc1cn(C)c(C(=O)Nc2cn(C)c(C(=O)Nc3cc(C(=O)Nc4cc(C(=O)NCCCC(=O)Nc5cc(C(=O)Nc6cc(C(=O)Nc7ccc8[nH]c(C(=O)N9CC%10CC%10%11C9=CC(=O)c9ccccc9%11)cc8c7)n(C)c6)n(C)c5)n(C)c4)n(C)c3)n2)n1 (centres unmarked) [compound (3-4), AcImImPyPy-γ-PyPy-Indole-CBI]
sequence-specific DNA alkylation, alkylated sites [4]: Sequence-specific DNA alkylation (site 6: 5′-AATCCA-3′, site 7: 5′-TAACCA-3′)

CC(=O)Nc1cn(C)c(C(=O)Nc2cc(C(=O)Nc3cc(C(=O)Nc4cc(C(=O)NCCCC(=O)Nc5cn(C)c(C(=O)Nc6cc(C(=O)Nc7ccc8[nH]c(C(=O)N9CC%10CC%10%11C9=CC(=O)c9ccccc9%11)cc8c7)n(C)c6)n5)n(C)c4)n(C)c3)n(C)c2)n1 (centres unmarked) [compound (3-5), AcImPyPyPy-γ-ImPy-Indole-CBI]
sequence-specific DNA alkylation, alkylated sites [4]: alkylation of an only mismatch sequence (site 1: 5′-TGCTCA-3′) was observed

CC(=O)Nc1cn(C)c(C(=O)Nc2cn(C)c(C(=O)Nc3ccc4[nH]c(C(=O)N5CC(CCl)c6c5cc(O)c5ccccc65)cc4c3)n2)n1 (centres unmarked) [compound (4-1), AcImIm-Indole-seco-CBI]
conversion into compound (3-1) ([1]; alkaline aqueous NaHCO3 solution pH=9, 37° C., 30 minutes): 50% | conversion into compound (3-1) ([1]; alkaline aqueous NaHCO3 solution pH=9, 37° C., 2 hours): 78% | formation of other hydrolysates ([1]; alkaline aqueous NaHCO3 solution pH=9, 37° C., 24 hours): No other hydrolysates were formed | hydrolysis in acidic aqueous HCl solution ([1]; pH=1, 37° C., 24 hours): not hydrolyzed at all | sequence-specific DNA alkylation [2]: selectively alkylated adenine located at site 1 (5′-CGGCCA-3′) at nanomolar concentrations

CC(=O)Nc1cn(C)c(C(=O)Nc2cn(C)c(C(=O)Nc3cc(C(=O)Nc4cc(C(=O)NCCCC(=O)Nc5cn(C)c(C(=O)Nc6cc(C(=O)Nc7ccc8[nH]c(C(=O)N9CC(CCl)c%10c9cc(O)c9ccccc%109)cc8c7)n(C)c6)n5)n(C)c4)n(C)c3)n2)n1 (centres unmarked) [compound (4-2), AcImImPyPy-γ-ImPy-Indole-seco-CBI]
suppression of tumor growth ([5]; 50 mg/kg subcutaneous near the tumor, Br-10 in nude mice): suppression of tumor growth was observed after the first administration | toxicity (weight loss of mice and the like) ([5]; 50 mg/kg subcutaneous, nude mice): toxicity that causes the weight loss of mice and the like was not observed | relative tumor volume (after 1 day = 1.0) ([5]; after 1 day, 50 mg/kg subcutaneous near the tumor): 1.0 | T/C (%) ([5]; after 1 day): 100% | relative tumor volume (after 1 day = 1.0) ([5]; after 4 days, 50 mg/kg subcutaneous near the tumor): 1.1 | T/C (%) ([5]; after 4 days): 78.6% | relative tumor volume (after 1 day = 1.0) ([5]; after 7 days, 50 mg/kg subcutaneous near the tumor): 1.4 | T/C (%) ([5]; after 7 days): 82.4% | relative tumor volume (after 1 day = 1.0) ([5]; after 10 days, 50 mg/kg subcutaneous near the tumor): 1.4 | T/C (%) ([5]; after 10 days): 66.7% | relative tumor volume (after 1 day = 1.0) ([5]; after 13 days, 50 mg/kg subcutaneous near the tumor): 1.5 | T/C (%) ([5]; after 13 days): 55.6% | relative tumor volume (after 1 day = 1.0) ([5]; after 16 days, 50 mg/kg subcutaneous near the tumor): 2.0 | T/C (%) ([5]; after 16 days): 64.5%
